From US20260158018A1, “PERFUSATE CONTAINING NICOTINAMIDE FOR INTRAOCULAR SURGERY, METHOD OF PREPARATION AND USE THEREOF” (EYE INSTITUTE OF SHANDONG FIRST MEDICAL UNIVERSITY …, priority 2023, published 2026)

Tests used:
rabbit CECs = experiment: Rabbit lens phacoemulsification model with NAM-containing perfusate; assay type: in vivo, New Zealand white rabbits; conditions: for corneal transparency / edema: 2 days after surgery; for corneal transparency / edema / recovery of corneal thickness / protective effect on CECs in phacoemulsification: NAM versus Gln in perfusate; for corneal transparency / edema / recovery of corneal thickness: FIG. 7; for protective effect on CECs in phacoemulsification: conclusion
Protocol: Animals: New Zealand white rabbits (age, 1.5 years; weight, 5-7 kg) were purchased from Jinan Xilingjiao Biological Co., Ltd. New Zealand white rabbits were kept in a pathogen-free environment in the animal house of the Eye Institute of Shandong First Medical University.
Animal model: the pupils were dilated three times with 0.5% compound tropicamide eye drops. Sedation was performed first, and the rabbits were anesthetized according to 20 mg/kg intramuscular injection of xylazine hydrochloride injection and 3% pentobarbital sodium injection (15 mg/kg) intravenously at the ear margin. The right eye of each rabbit was subjected to phacoemulsification for lens removal using the WHITESTAR Signature® Phacoemulsification System (Signature, AMO, USA). The left eye was used as the normal eye. A 3.0-mm clear corneal tunnel incision was made at the position of 11 to 12 o'clock, and continuous curvilinear capsulorhexis was performed in the center of the anterior capsular membrane of the lens, with a torn capsule diameter of approximately 5.0 mm. Phacoemulsification was then performed to suction out the lens contents, including the nucleus of the lens and the residual lens cortex, with the setting of ultrasonication energy of 30-50% and the ultrasonication time of 4-6 min. At the end of the procedure, the New Zealand white rabbits were administered with tobramycin and dexamethasone eye ointment in the conjunctival sac.
Perfusate: balanced salt solution containing 1 mM NAM (refers to compound electrolyte intraocular irrigating solution, Shike®, Shenyang Xingqi Pharmaceutical Co., Ltd.): NAM was added to the balanced salt solution until the concentration of NAM in the perfusate was 1 mM; balanced salt solution containing 2.5 mM NAM: NAM was added to the balanced salt solution until the concentration of NAM in the perfusate was 2.5 mM; balanced salt solution containing 5 mM NAM: NAM was added to the balanced salt solution until the concentration of NAM in the perfusate was 5 mM; balanced salt solution alone as control group: an equal amount of PBS was added to the balanced salt solution.
Immunofluorescence staining: immunofluorescence detection of the expression of functional proteins ZO1 and ATP1A1.
Alizarin Red Staining: gross corneas of New Zealand rabbits were collected and fixed in sterile saline. The cornea was flattened by cutting it into four flaps using ophthalmic microscopic scissors. The corneas were stained with alizarin red staining solution for 2 min, followed by washing the corneas at least three times with sterile saline. Cover slips were put on, changes in the CECs of New Zealand rabbits were observed under a microscope, image acquisition was performed, and all experiments were repeated at least 3 times. Endothelial cell density, coefficient of variation, and hexagonal ratio were determined using alizarin red-stained images of New Zealand rabbit corneas. By using an endothelial microscope by 2 uninformed observers, cell density was normalized to the area of each image in square millimeters. For each image, an area containing at least 60 cells was selected.
Slit lamp photography: changes in corneal transparency in New Zealand rabbits were observed and recorded using a slit lamp.
Corneal thickness test: corneal thickness was analyzed and measured using optical coherence tomography (OCT) to measure central corneal thickness, with no less than three New Zealand rabbits measured at each time point.
Phacoemulsification was performed on New Zealand white rabbits, where NAM-containing intraocular perfusate was used for irrigation, and perfusate of the balanced salt solution alone was used as a control.

mouse CECs = conditions: mice treated with high IOP, reported in the literature; cited from earlier work
Human CECs line B4G12 = experiment: Cellular assay: B4G12 cell damage induced by phacoemulsification in vitro; assay type: cell-based; conditions: 1 mM, 2.5 mM and 5 mM NAM; 1 hour and 24 hours after phacoemulsification; sonication 20 seconds, energy 30%; FIG. 8
Protocol: Preparation for cell culture in vitro: Human CECs line B4G12 was selected for culture, original medium was discarded, 3 mL of PBS buffer was added, 6.0 cm cell culture dish was shaken gently, rinsed twice, and PBS buffer was discarded. 1.0 mL of trypsin was added to completely cover the bottom of the dish, and the dish was placed in the incubator for 5 min. The dish gently shaken, tapped, and observed with a microscope. The adherent cells became suspended round cells, then 1.5 mL of complete medium [each 50 mL of human corneal endothelial cell basal medium (H-SFM, Creative Bioarray, New York, USA) supplemented with 1.5 mL of FBS and 0.5 mL of penicillin-streptomycin solution] was added to the flask on the laminar flow cabinet, and trypsin digestion of cells was stopped. The cells on all parts of the bottom of the flask were gently pipetted using the tip of the pipettor so that the cells became fully in suspension. The cell suspension was transferred to a 15 mL centrifuge tube and subjected to centrifugation at 1200 rpm for 5 min. After the centrifugation, the supernatant was discarded, 3 mL of complete medium was added to the centrifuge tube, and a resulting mixture was gently pipetted to eveness. The cells were allowed to resuspend sufficiently, then inoculated into 48-well cell culture plates at a cell density of 1×10^5 and incubated for 24 hours for subsequent experiments. […]

| SMILES | corneal transparency / edema (rabbit CECs) | recovery of corneal thickness (rabbit CECs) | protective effect on CECs in phacoemulsification (rabbit CECs) | protective effect on CECs during high IOP treatment (mouse CECs) | apoptosis and cell survival of B4G12 cells after phacoemulsification (Human CECs line B4G12) | intraocular pressure (IOP) after phacoemulsification (rabbit CECs; within 7 days after surgery, versus control group, FIG. 4) |
| --- | --- | --- | --- | --- | --- | --- |
| NC(=O)CC[C@H](N)C(=O)O [Gln, glutamine] | still edematous | recovered more slowly | poor protective effect | protective effect on CECs in mice treated with high IOP |  |  |
| NC(=O)c1cccnc1 [NAM, nicotinamide] | transparent | recovered quickly | has a protective effect on CECs |  | could inhibit apoptosis induced by phacoemulsification and promote cell survival in a concentration-dependent manner | did not cause a pathological increase in IOP within 7 days after surgery |
